The supplement of paper PMC10331698
± gives the standard deviation of the averaged measurements.

What was measured:
Experiment in all cases: level (log10 ratio to DMSO vehicle control); higher = higher biomarker level / cell amount than vehicle control
Conditions in all cases: in DMSO
[1] = compound: OCC(F)(F)OC(F)(F)C(F)(F)OC(F)(F)CO [1H,1H,8H,8H-Perfluoro-3,6-dioxaoctane-1,8-diol]
Method: (§1)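 BioMAP Diversity Plus panel of 12 human primary cell co-culture systems (3C, 4H, LPS, SAg, BT, BF4T, BE3C, CASM3C, HDF3CGF, KF3CT, MyoF, Mphg). Compounds were added 1 h before stimulation and left for 24 h (MyoF 48 h; BT 72 h for soluble read-outs or 6 d for IgG). Biomarkers were read by ELISA, cytotoxicity by SRB, PBMC viability and proliferation by Alamar Blue. Each well value was divided by the mean of 8 DMSO control wells on the same plate and log10 transformed; duplicate blinded samples were tested at 4 concentrations.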

Perfluoropropanoic acid = compound: O=C(O)C(F)(F)C(F)(F)F [Perfluoropropanoic acid]
Method: as §1

Perfluoro-1-iodohexane = compound: FC(F)(F)C(F)(F)C(F)(F)C(F)(F)C(F)(F)C(F)(F)I [Perfluoro-1-iodohexane]
Method: as §1

[2] = compound: FC(F)(F)C(F)(F)C(F)(F)C(F)(F)C(F)(F)CCI [1-Iodo-1H,1H,2H,2H-perfluoroheptane]
Method: as §1

[3] = compound: OCCC(F)(F)C(F)(F)C(F)(F)C(F)(F)C(F)(F)C(F)(F)F [6:2 Fluorotelomer alcohol]
Method: as §1

Perfluorobutanoic acid = compound: O=C(O)C(F)(F)C(F)(F)C(F)(F)F [Perfluorobutanoic acid]
Method: as §1

[4] = compound: O=C(O)C(F)(F)OC(F)(F)C(F)(F)OC(F)(F)F [Perfluoro-3,6-dioxaheptanoic acid]
Method: as §1

Test System	level (log10) ([1]; 6700 nM)	level (log10) ([1]; 20000 nM)	level (log10) ([1]; 60000 nM)	level (log10) (Perfluoropropanoic acid; 6700 nM)	level (log10) (Perfluoropropanoic acid; 20000 nM)	level (log10) (Perfluoropropanoic acid; 60000 nM)	level (log10) (Perfluoro-1-iodohexane; 6700 nM)	level (log10) (Perfluoro-1-iodohexane; 20000 nM)	level (log10) (Perfluoro-1-iodohexane; 60000 nM)	level (log10) ([2]; 6700 nM)	level (log10) ([2]; 20000 nM)	level (log10) ([2]; 60000 nM)	level (log10) ([3]; 6700 nM)	level (log10) ([3]; 20000 nM)	level (log10) (Perfluorobutanoic acid; 6700 nM)	level (log10) (Perfluorobutanoic acid; 20000 nM)	level (log10) (Perfluorobutanoic acid; 60000 nM)	level (log10) ([4]; 6700 nM)	level (log10) ([4]; 20000 nM)	level (log10) ([4]; 60000 nM)
CASM3C:IL-6	-0.017 ± 0.011	-0.009 ± 0.0014	0.0215 ± 0.056	-0.0205 ± 0.056	-0.025 ± 0.0071	-0.0045 ± 0.035	-0.0035 ± 0.012	-0.0055 ± 0.0021	0.018 ± 0.0099	-0.0145 ± 0.022	-0.044 ± 0.0057	-0.017 ± 0.018	0.0015 ± 0.018	-0.004 ± 0.0099	-0.0295 ± 0.012	-0.0175 ± 0.021	0.0115 ± 0.044	-0.01 ± 0.044	-0.0255 ± 0.0035	-0.017 ± 0.02
CASM3C:LDLR	0.005 ± 0.0014	0.0055 ± 0.019	0.0235 ± 0.039	-0.0845 ± 0.07	-0.036 ± 0.054	-0.022 ± 0.073	-0.008 ± 0.0057	0.0155 ± 0.016	0.005 ± 0.028	0.0005 ± 0.011	0.009	0.013 ± 0.016	0.031 ± 0.011	0.023 ± 0.0028	-0.013 ± 0.028	-0.018 ± 0.02	0.0095 ± 0.015	-0.0145 ± 0.033	-0.013 ± 0.037	-0.0015 ± 0.005
CASM3C:M-CSF	-0.014 ± 0.0014	-0.0105 ± 0.005	0.0115 ± 0.0092	-0.0265 ± 0.16	0.0055 ± 0.0092	0.034 ± 0.065	-0.0125 ± 0.025	0.0055 ± 0.032	0.0085 ± 0.043	-0.0055 ± 0.035	-0.0145 ± 0.011	-0.0265 ± 0.0092	-0.018 ± 0.0014	0.019 ± 0.016	-0.0095 ± 0.0064	-0.0205 ± 0.013	0.0275 ± 0.063	-0.09 ± 0.035	-0.02 ± 0.023	0.034 ± 0.0014
CASM3C:PAI-I	0.006 ± 0.0028	0 ± 0.0028	0.011 ± 0.017	-0.0035 ± 0.0021	-0.003 ± 0.0014	0.0005 ± 0.0064	-0.003 ± 0.0071	-0.007 ± 0.0014	-0.003 ± 0.0028	0.003 ± 0.0042	0.001 ± 0.0014	0.007 ± 0.0042	0.0105 ± 0.00071	0.005 ± 0.0057	-0.002 ± 0.0099	-0.003 ± 0.018	-0.0005 ± 0.011	-0.004 ± 0.0099	-0.013 ± 0.024	-0.0105 ± 0.018
